Converted amounts (≈) assume the structure as drawn.
Legend:
[1] = system: B. Circulans M-1123-5 acylase; assay: Selectivity of the acylases; conditions: ester (I) 45 mg, amine (II) 9 mg, 37° C., 3 hours 45 minutes; TLC and paper-disc assay with Bacillus subtilis PCI-219
[2] = system: A. globiformis M-345-2 acylase; assay: Selectivity of the acylases; conditions: ester (I) 45 mg, amine (II) 9 mg, 37° C., 3 hours 45 minutes; TLC and paper-disc assay with Bacillus subtilis PCI-219
[3] = system: A. fragerum M-2183-1 acylase; assay: Selectivity of the acylases; conditions: ester (I) 45 mg, amine (II) 9 mg, 37° C., 3 hours 45 minutes; TLC and paper-disc assay with Bacillus subtilis PCI-219
Solubility in water = format: physicochemical; conditions: read-out: concentration that can dissolve in water
[4] = system: acylase of Xanthomonas axonopodis M-621-1 on Sepharose 4B; assay: Cephalexin production with immobilized enzyme of Xanthomonas axonopodis M-621-1; format: biochemical; conditions: ester 45 mg, 7-aminodeacetoxycephalosporanic acid 3 mg, 37° C., 3.5 hours
[5] = system: immobilized enzyme (acylase) of Bacillus circulans M-1123-5 on Sepharose 4B; assay: Reactivity of TA esters by batch process; format: biochemical; conditions: 7-ACA to CET, 7-ACA 30 mg in 10 ml, pH 7.0, 37° C., 3 hours
Procedure: To a solution of 7-ACA (30 mg) and TA-esters (given amount) in M/10-phosphate buffer (pH 7.0) (10 ml) is added an immobilized enzyme (0.9 g) on Sepharose 4B, and the mixture is stirred at 37° C. for 3 hours. Concentration of CET in the reaction mixture is estimated by assaying antibacterial activity against Bacillus subtilis PCI-219 and conversion rate from 7-ACA to CET is calculated.

[6] = system: immobilized enzyme (acylase) of Bacillus circulans M-1123-5; assay: Reactivity of TA esters by column method; format: biochemical; conditions: 7-ACA 5 mg/ml, 37° C., 25 ml/hr
Procedure: Concentration of CET in the eluate is determined by assaying antibacterial activity against Bacillus subtilis PCI-219 to estimate the yield on Table 3 in the laminar flow state. (Immobilization of purified enzyme)

[7] = system: acylase of Micrococcus roseus M-1054-1 (broth); assay: Cephalothin production with broth of Micrococcus roseus; format: biochemical; conditions: 3.5 hours at 37° C.; paper disc assay against Bacillus subtilis PCI-219
Procedure: The broth is adjusted to pH 7.0. The broth (4.5 ml) is added to a solution of 7-ACA (3%) and (i) 2-thienylacetic acid glycerin ester, (ii) 2-thienylacetic acid tetraethyleneglycol ester or (iii) 2-thienylacetic acid octaethyleneglycol ester in 0.2 M-phosphate buffer (0.5 ml) to react for 3.5 hours at 37° C. The reaction mixture is centrifuged to remove cells and the supernatant is assayed by paper disc assay method against Bacillus subtilis PCI-219 to the following values of produced cephalothin.

[8] = system: purified acylase of Bacillus circulans M-1123-5 immobilized on agar gel; assay: Acylating capacity of immobilized pure enzyme; format: biochemical
[9] = system: immobilized enzyme from Arthrobacter globiformis M-345-2; assay: Acylating capacity of immobilized enzyme from Arthrobacter globiformis M-345-2; format: biochemical
[10] = system: acylase of Bacillus circulans M-1123-5 absorbed on Celite 560; assay: Acylating capacity of absorbed enzyme on Celite 560; format: biochemical
[11] = system: acylase of Micrococcus luteus M-331-1 (dried cells); assay: CET production with dried cells of Micrococcus luteus M-331-1; format: biochemical; conditions: dried cells 26 mg, 3 hours, 37° C., pH 7.0
Procedure: The broth is added into an aqueous medium (100 volumes) of the same composition as above, and incubated for 3 days at 28° C.
The broth is neutralized with hydrochloric acid to pH 7, centrifuged to collect the cells, washed with water and dried by washing with acetone to give 1.302 g of dry cells.
The dried cells (26 mg) are suspended in water (1.5 ml), diluted with a solution of 7-ACA (4 mg/ml) and TA-tetraester (20 mg/ml) in M/5-phosphate buffer (pH 7.0) (0.5 ml) and shaken for 3 hours at 37° C. to produce CET at a conversion rate of about 30%. (Immobilized cell entrapted in acrylamide gel)

[12] = system: acylase of Micrococcus luteus M-331-1 (immobilized cells); assay: CET production with immobilized cells in acrylamide gel; format: biochemical; conditions: 7-ACA 1 mg/ml
Procedure: In a solution of acrylamide monomer (750 mg) and N,N'-methylenebisacrylamide (40 mg) in M/20-phosphate buffer (pH 7.0) (4 ml) are suspended said dry cells (1 g). To this solution is added 5% 3-dimethylaminopropionitrile (0.5 ml) and aqueous 1% potassium persulfate (0.5 ml) and the mixture is allowed to stand at 25° C. for 30 minutes. Produced gel is crushed with blender and produced particles over 100 mesh are collected, filled in a 10 mm .phi. tube, and washed with M/20-phosphate buffer (pH 7.0) to give a column (10.2 ml) of immobilized cells.

[13] = TA-tetraester 12.5 mg/ml, pH 7.0
[14] = TA-tetraester 18.8 mg/ml, pH 7.0

COCCOCCOCCOCCOCCOC(=O)Cn1cnnn1
product detected and determined, B. Circulans M-1123-5 [1]: 55.7 | product detected and determined, A. globiformis M-345-2 [2]: 43.7 | product detected and determined, A. fragerum M-2183-1 [3]: 54.9

COCCOCCOC(=O)C(N)c1ccccc1 (stereo not shown)
product detected and determined, B. Circulans M-1123-5 [1]: 29.6 | product detected and determined, A. globiformis M-345-2 [2]: 10.6

COC(=O)Cc1cccs1 [2-thienylacetic acid methyl ester]
solubility (Solubility in water): 10000 µg/mL (≈ 64 mM)

COCCOCCOC(=O)[C@H](N)c1ccccc1 [D-phenylglycin diethyleneglycol ester methyl ether]
conversion rate to cephalexin [4]: 26.3%

O=C(Cc1cccs1)OCC(O)CO (stereo not shown) [TA-glycerin ester, 2-thienylacetic acid glycerin ester]
Conversion rate (%) [5]: 73.7% | 7-ACA→CET Conversion rate (%) ([6]; carrier Sepharose 4B): 82.0% | produced cephalothin [7]: 34 µg/mL

COCCOCCOCCOCCOCCOCCOCCOCCOC(=O)Cc1cccs1 [TA-octaester methyl ether]
Conversion rate (%) [5]: 68.2% | 7-ACA→CET Conversion rate (%) ([6]; carrier Agar gel): 69.8% | 7-ACA→CET Conversion rate (%) ([6]; carrier Sepharose 4B): 69.8% | 7-ACA→CET Conversion rate (%) ([8]; Elute 39 ml, 7-ACA 10 mg/ml, ester 142.2 mg/ml, 16 ml/hr): 84.8% | 7-ACA→CET Conversion rate (%) ([8]; Elute 173 ml): 85.2% | 7-ACA→CET Conversion rate (%) ([8]; Elute 306 ml): 85.3% | 7-ACA→CET Conversion rate (%) ([8]; Elute 405 ml): 90.4% | 7-ACA→CET Conversion rate (%) ([8]; Elute 731 ml): 85.7% | 7-ACA→CET Conversion rate (%) ([8]; Elute 782 ml): 86.3% | 7-ACA→CET Conversion rate (%) ([8]; Elute 917 ml): 88.5% | 7-ACA→CET Conversion rate (%) ([8]; Elute 1089 ml): 86.9% | 7-ACA→CET Conversion rate (%) ([8]; Elute 1156 ml): 86.6% | 7-ACA→CET Conversion rate (%) ([8]; Elute 1294 ml): 82.5% | 7-ACA→CET Conversion rate (%) ([8]; Elute 1432 ml): 83.1% | 7-ACA→CET Conversion rate (%) ([8]; Elute 1534 ml): 82.0% | Conversion rate ([9]; 7-ACA 1 mg/ml, TA-ester 60, Agar gel): 80.5% | Conversion rate ([9]; 7-ACA 1 mg/ml, TA-ester 114, Agar gel): 76.5%

O=C(Cc1cccs1)OCCOCCOCCOCCOCCOCCOCCOCCO [TA-octaester, 2-thienylacetic acid octaethyleneglycol ester]
Conversion rate (%) [5]: 76.2% | produced cephalothin [7]: 22 µg/mL

O=C(Cc1cccs1)OCCOCCOCCOCCOCCO [TA-pentaester]
Conversion rate (%) [5]: 80.6% | 7-ACA→CET Conversion rate (%) ([6]; carrier Sepharose 4B): 69.9%

COCCOCCOCCOCCOC(=O)Cc1cccs1 [TA-tetraester methyl ether]
Conversion rate (%) [5]: 73.3% | 7-ACA→CET Conversion rate (%) ([6]; carrier Agar gel): 86.5% | 7-ACA→CET Conversion rate (%) ([6]; carrier Sepharose 4B): 86.5%

O=C(Cc1cccs1)OCCOCCOCCOCCO [TA-tetraester, 2-thienylacetic acid tetraethyleneglycol ester]
Conversion rate (%) [5]: 77.1% | 7-ACA→CET Conversion rate (%) ([6]; carrier Agar gel): 85.0% | 7-ACA→CET Conversion rate (%) ([6]; carrier Sepharose 4B): 87.6% | 7-ACA→CET Conversion rate (%) In eluate [10, 13]: 63.0% | 7-ACA→CET Conversion rate (%) Isolated Na salt [10, 13]: 53.0% | 7-ACA→CET Conversion rate (%) In eluate [10, 14]: 63.0% | 7-ACA→CET Conversion rate (%) Isolated Na salt [10, 14]: 64.2% | 7-ACA→CET Conversion rate (%) In eluate ([10]; TA-tetraester 25 mg/ml, pH 6.0): 62.8% | 7-ACA→CET Conversion rate (%) Isolated Na salt ([10]; TA-tetraester 25 mg/ml, pH 6.0): 48.5% | 7-ACA→CET Conversion rate (%) In eluate ([10]; TA-tetraester 25 mg/ml, pH 7.0): 72.9% | 7-ACA→CET Conversion rate (%) Isolated Na salt ([10]; TA-tetraester 25 mg/ml, pH 7.0): 67.2% | 7-ACA→CET Conversion rate (%) In eluate ([10]; TA-tetraester 25 mg/ml, pH 8.0): 71.6% | 7-ACA→CET Conversion rate (%) Isolated Na salt ([10]; TA-tetraester 25 mg/ml, pH 8.0): 49.3% | Conversion rate ([9]; 7-ACA 1 mg/ml, TA-ester 114, Sephalose 4B): 78.5% | Conversion rate ([9]; 7-ACA 1 mg/ml, TA-ester 120, Sephalose 4B): 83.7% | Conversion rate ([9]; 7-ACA 2 mg/ml, TA-ester 120, Sephalose 4B): 71.0% | Conversion rate ([9]; 7-ACA 3 mg/ml, TA-ester 120, Sephalose 4B): 56.3% | conversion rate (CET produced) [11]: about 30% | conversion rate (CET in eluate) ([12]; TA-tetraester 6 mg/ml): 28.6 to 32.5% | conversion rate (CET in eluate) ([12]; TA-tetraester 30 mg/ml): 31.2 to 34.1% | produced cephalothin [7]: 26 µg/mL

O=C(Cc1ccccc1)OCCOCCOCCOCCO [drawing 18]
product detected and determined, B. Circulans M-1123-5 [1]: 36.2 | product detected and determined, A. globiformis M-345-2 [2]: 10.1 | product detected and determined, A. fragerum M-2183-1 [3]: 16.1

O=C(Cc1ccccc1)OCCOCCOCCOCCO [drawing 20]
product detected and determined, B. Circulans M-1123-5 [1]: Decomposition with penicillinase | product detected and determined, A. globiformis M-345-2 [2]: 18.0 | product detected and determined, A. fragerum M-2183-1 [3]: 20.3
